This note sets out measurements from US9974800B2 (priority 2014, dated 2018).

This test relates to Ebola virus. The test is classed as cell-based. Conditions: alone.

Take `CC[C@H]1OC(=O)[C@H](C)[C@@H](O[C@H]2C[C@@](C)(OC)[C@@H](O)[C@H](C)O2)[C@H](C)[C@@H](O[C@@H]2O[C@H](C)C[C@H](N(C)C)[C@H]2O)[C@](C)(OC)C[C@@H](C)C(=O)[C@H](C)[C@@H](O)[C@]1(C)O` [Clarithromycin]: the “inhibit EBOV infection in primary macrophages” value is listed as “can inhibit EBOV infection”.
